Measured values as given in US20110166121A1 (LG LIFE SCIENCES LTD., priority 2008, published 2011).

Key:
[1] = system: Human platelet aggregation caused by ADP; experiment: Inhibition of ADP-induced platelet aggregation (Mimic-human PRP); assay type: cell-based; conditions: 20 μM ADP, human platelet concentrate diluted with PPP, absorption at 595 nm
Method in brief: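 Ki came from non-linear sigmoidal fits of inhibition, measured as the 3-min rise in absorbance at 595 nm after 20 μM ADP, relative to 0/20 μM ADP controls. Platelets (3–4×10^8/mL in PPP-diluted human PRP) were exposed to 0.01–30 μM compound for 20 min at room temperature beforehand.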

Human P2Y12 receptor = target: T1, Human P2Y12 receptor (Homo sapiens, UniProt Q9H244); experiment: Human P2Y12 receptor cell membrane binding assay with [3H] 2-Mes-ADP; conditions: 1 nM [3H] 2-Mes-ADP, membranes of HEK cells expressing P2Y12 receptor; read-out: Binding activity (IC50)
T1 construct: expressed in transfected cells; host or cells: HEK cells
Method in brief: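 Competition binding used 1 nM [3H]2-MeS-ADP on P2Y12-expressing HEK cell membranes for 1 h at room temperature, followed by filtration and scintillation counting.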

T1 sequence (Q9H244 whole entry): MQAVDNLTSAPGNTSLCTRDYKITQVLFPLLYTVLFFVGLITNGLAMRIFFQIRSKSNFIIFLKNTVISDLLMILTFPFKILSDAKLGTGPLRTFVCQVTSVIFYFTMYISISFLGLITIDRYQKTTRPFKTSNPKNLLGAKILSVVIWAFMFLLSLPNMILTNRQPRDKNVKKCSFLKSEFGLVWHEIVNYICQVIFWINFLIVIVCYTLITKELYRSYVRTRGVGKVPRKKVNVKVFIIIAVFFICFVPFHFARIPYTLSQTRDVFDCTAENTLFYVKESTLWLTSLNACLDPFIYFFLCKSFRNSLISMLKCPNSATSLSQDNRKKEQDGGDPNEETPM

| SMILES | Ki [1] [nM] | IC50 (Human P2Y12 receptor) [nM] |
| --- | --- | --- |
| CCCc1cc2c(N3CCn4c(nnc4C(F)(F)F)C3)nc(-c3nc(CC(=O)OCC)cs3)nc2s1 [Example 4-51, {2-[6-Propyl-4-(3-trifluoromethyl-5,6-dihydro-8H-[1,2,4]triazolo[4,3-a]pyrazin-7-yl)thieno[2,3-d]pyrimidin-2-yl]thiazol-4-yl}acetic acid ethyl ester] | 36 | 40 |
| CCCc1cc2c(N3CCn4c(nnc4C(F)(F)F)C3)nc(-c3nnc(CC#N)o3)nc2s1 [Example 4-34, {5-[6-Propyl-4-(3-trifluoromethyl-5,6-dihydro-8H-[1,2,4]triazolo[4,3-a]pyrazin-7-yl)thieno[2,3-d]pyrimidin-2-yl]-[1,3,4]oxadiazol-2-yl}acetonitrile] | 13 | 68 |
| CCCc1cc2c(N3CCn4c(nnc4C(F)(F)F)C3)nc(-c3nnc(N)o3)nc2s1 [Example 4-39, 5-[6-Propyl-4-(3-trifluoromethyl-5,6-dihydro-8H-[1,2,4]triazolo[4,3-a]pyrazin-7-yl)thieno[2,3-d]pyrimidin-2-yl]-[1,3,4]oxadiazol-2-ylamine] | 160 | 100 |
| CCCc1cc2c(N3CCn4c(nnc4C(F)(F)F)C3)nc(-c3nnc(COC)o3)nc2s1 [Example 4-35, 7-[2-(5-Methoxymethyl-[1,3,4]oxadiazol-2-yl)-6-propyl-thieno[2,3-d]pyrimidin-4-yl]-3-trifluoromethyl-5,6,7,8-tetrahydro-[1,2,4]triazolo[4,3-a]pyrazine] | 30 | 130 |
| CCCc1cc2c(N3CCn4c(nnc4C(F)(F)F)C3)nc(C3=N[C@H](C(=O)OC)CS3)nc2s1 [Example 4-47, (R)-2-[6-Propyl-4-(3-trifluoromethyl-5,6-dihydro-8H-[1,2,4]triazolo[4,3-a]pyrazin-7-yl)thieno[2,3-d]pyrimidin-2-yl]-4,5-dihydro-thiazole-4-carboxylic acid methyl ester] | 13 | 24 |
| CCCc1cc2c(N3CCn4c(nnc4C(F)(F)F)C3)nc(N3CCN(CC4CCCCC4)CC3)nc2s1 [Example 1-42, 7-[2-(4-Cyclohexylmethyl-piperazin-1-yl)-6-propyl-thieno[2,3-d]pyrimidin-4-yl]-3-trifluoromethyl-5,6,7,8-tetrahydro-[1,2,4]triazolo[4,3-a]pyrazine] | 7300 | 1170 |
| CCCc1cc2c(N3CCn4c(nnc4C(F)(F)F)C3)nc(C(=O)NCC(O)CO)nc2s1 (centres unmarked) [Example 4-10, 6-Propyl-4-(3-trifluoromethyl-5,6-dihydro-8H-[1,2,4]triazolo[4,3-a]pyrazin-7-yl)thieno[2,3-d]pyrimidine-2-carboxylic acid (2,3-dihydroxy-propyl)amide] | 200 | 1550 |
| CCCc1cc2c(N3CCn4c(nnc4C(F)(F)F)C3)nc(NCc3ccccc3)nc2s1 [Example 1-32, Benzyl-[6-propyl-4-(3-trifluoromethyl-5,6-dihydro-8H-[1,2,4]triazolo[4,3-a]pyrazin-7-yl)-thieno[2,3-d]pyrimidin-2-yl]-amine] | > 4000 | 95 |
| CCCc1cc2c(N3CCn4c(nnc4C(F)(F)F)C3)nc(OCC(CO)CO)nc2s1 [Example 3-2, 2-[6-Propyl-4-(3-trifluoromethyl-5,6-dihydro-8H-[1,2,4]triazolo[4,3-a]pyrazin-7-yl)-thieno[2,3-d]pyrimidin-2-yloxymethyl]-propane-1,3-diol] | 17 | 200 |
| CCCc1cc2c(N3CCn4c(nnc4C(F)(F)F)C3)nc(N3CCNc4ccccc43)nc2s1 [Example 1-68, 1-[6-Propyl-4-(3-trifluoromethyl-5,6-dihydro-8H-[1,2,4]triazolo[4,3-a]pyrazin-7-yl)-thieno[2,3-d]pyrimidin-2-yl]-1,2,3,4-tetrahydro-quinoxaline] | 430 | 100 |
| CCCc1cc2c(N3CCn4c(nnc4C(F)(F)F)C3)nc(N3CCCC(C(=O)OCOC(=O)C(C)(C)C)C3)nc2s1 (centres unmarked) [Example 1-48, 1-[6-Propyl-4-(3-trifluoromethyl-5,6-dihydro-8H-[1,2,4]triazolo[4,3-a]pyrazin-7-yl)-thieno[2,3-d]pyrimidin-2-yl]-piperidine-3-carboxylic acid 2,2-dimethyl-propionyloxymethyl ester] | 1300 | 400 |
| CCCc1cc2c(N3CCn4c(nnc4C(F)(F)F)C3)nc(NCCC(=O)O)nc2s1 [Example 1-44, 3-[6-Propyl-4-(3-trifluoromethyl-5,6-dihydro-8H-[1,2,4]triazolo[4,3-a]pyrazin-7-yl)-thieno[2,3-d]pyrimidin-2-ylamino]-propionic acid] | 260 | 59 |
| CCCc1cc2c(N3CCn4c(nnc4C(F)(F)F)C3)nc(OCCNS(=O)(=O)C3CC3)nc2s1 [Example 3-68, Cyclopropanesulfonic Acid {2-[6-propyl-4-(3-trifluoromethyl-5,6-dihydro-8H-[1,2,4]triazolo[4,3-a]pyrazin-7-yl)-thieno[2,3-d]pyrimidin-2-yloxy]-ethyl}-amide] | 120 | 140 |
| CCc1cc2c(N3CCn4c(nnc4C(F)(F)F)C3)nc(N(CCO)CCO)nc2s1 [Example 2-6, 2-[[6-Ethyl-4-(3-trifluoromethyl-5,6-dihydro-8H-[1,2,4]triazolo[4,3-a]pyrazin-7-yl)-thieno[2,3-d]pyrimidin-2-yl]-(2-hydroxy-ethyl)-amino]-ethanol] | 715 | 835 |
| CCCc1cc2c(N3CCn4c(nnc4C(F)(F)F)C3)nc(N3CC(=NOC)C(N)C3)nc2s1 (centres unmarked) [Example 1-117, 4-Amino-1-[6-propyl-4-(3-trifluoromethyl-5,6-dihydro-8H-[1,2,4]triazolo[4,3-a]pyrazin-7-yl)-thieno[2,3-d]pyrimidin-2-yl]-pyrrolidin-3-one O-methyl-oxime] | 42 | 220 |
| CCCCc1cc2c(N3CCn4c(nnc4C(F)(F)F)C3)nc(N3CCN(C)CC3)nc2s1 [Example 2-16, 7-[6-Butyl-2-(4-methyl-piperazin-1-yl)-thieno[2,3-d]pyrimidin-4-yl]-3-trifluoromethyl-5,6,7,8-tetrahydro-[1,2,4]triazolo[4,3-a]pyrazine] | 817 | 188 |
| CCCc1cc2c(N3CCn4c(nnc4C(F)(F)F)C3)nc(Oc3ccc(CO)cc3)nc2s1 [Example 3-48, {4-[6-Propyl-4-(3-trifluoromethyl-5,6-dihydro-8H-[1,2,4]triazolo[4,3-a]pyrazin-7-yl)-thieno[2,3-d]pyrimidin-2-yloxy]-phenyl}-methanol] | > 4000 | 340 |
| CCCc1cc2c(N3CCn4c(nnc4C(F)(F)F)C3)nc(OC3CNC3)nc2s1 [Example 3-26, 7-[2-(Azetidin-3-yloxy)-6-propyl-thieno[2,3-d]pyrimidin-4-yl]-3-trifluoromethyl-5,6,7,8-tetrahydro-[1,2,4]triazolo[4,3-a]pyrazine] | 25 | 149 |
| CCCc1cc2c(N3CCn4c(nnc4C(F)(F)F)C3)nc(N3CCc4cc(OC)c(OC)cc4C3)nc2s1 [Example 1-66, 6,7-Dimethoxy-2-[6-propyl-4-(3-trifluoromethyl-5,6-dihydro-8H-[1,2,4]triazolo[4,3-a]pyrazin-7-yl)-thieno[2,3-d]pyrimidin-2-yl]-1,2,3,4-tetrahydro-isoquinoline] | 1400 | 200 |
| CCCc1cc2c(N3CCn4c(nnc4C(F)(F)F)C3)nc(OCCC(=O)OC(C)C)nc2s1 [Example 3-12, 3-[6-Propyl-4-(3-trifluoromethyl-5,6-dihydro-8H-[1,2,4]triazolo[4,3-a]pyrazin-7-yl)-thieno[2,3-d]pyrimidin-2-yloxy]-propionic acid isopropyl ester] | 50 | 160 |
| CCCc1cc2c(N3CCn4c(nnc4C(F)(F)F)C3)nc(-c3nc(CC(OC)OC)no3)nc2s1 [Example 4-31, 7-{2-[3-(2,2-Dimethoxy-ethyl)-[1,2,4]oxadiazol-5-yl]-6-propyl-thieno[2,3-d]pyrimidin-4-yl}-3-trifluoromethyl-5,6,7,8-tetrahydro-[1,2,4]triazolo[4,3-a]pyrazine] | > 4000 | 420 |
| CCCc1cc2c(N3CCn4c(nnc4C(F)(F)F)C3)nc(N3CCC(=NOCc4ccccc4)C3)nc2s1 [Example 1-21, 1-[6-Propyl-4-(3-trifluoromethyl-5,6-dihydro-8H-[1,2,4]triazolo[4,3-a]pyrazin-7-yl)-thieno[2,3-d]pyrimidin-2-yl]-pyrrolidin-3-one O-benzyloxime] | 220 | 452 |
| CCCc1cc2c(N3CCn4c(nnc4C(F)(F)F)C3)nc(OC3CCCC3)nc2s1 [Example 3-15, 7-(2-Cyclopentyloxy-6-propyl-thieno[2,3-d]pyrimidin-4-yl)-3-trifluoromethyl-5,6,7,8-tetrahydro-[1,2,4]triazolo[4,3-a]pyrazine] | 300 | 53 |
| CCCc1cc2c(N3CCn4c(nnc4C(F)(F)F)C3)nc(N3CCn4ccnc4C3)nc2s1 [Example 1-77, 7-[2-(5,6-Dihydro-8H-imidazo[1,2-a]pyrazin-7-yl)-6-propyl-thieno[2,3-d]pyrimidin-4-yl]-3-trifluoromethyl-5,6,7,8-tetrahydro-[1,2,4]triazolo[4,3-a]pyrazine] | 60 | 47 |
| CCCc1cc2c(N3CCn4c(nnc4C(F)(F)F)C3)nc(N3CCC(C#N)C3)nc2s1 (centres unmarked) [Example 1-55, 1-[6-Propyl-4-(3-trifluoromethyl-5,6-dihydro-8H-[1,2,4]triazolo[4,3-a]pyrazin-7-yl)-thieno[2,3-d]pyrimidin-2-yl]-pyrrolidine-3-carbonitrile] | 27 | 60 |
